Source: patent US8642628B2, “Pyrrole inhibitors of S-nitrosoglutathione reductase” (N30 Pharmaceuticals, Inc., priority 2008, dated 2014)

target: T1, GSNOR (GSNO Reductase) (Homo sapiens, UniProt P11766); test: GSNOR assay (inhibition of GSNOR activity, change in 340 nm absorbance); assay type: biochemical; settings: 100 mM NaPO4 pH 7.4, 0.240 mM GSNO, 0.300 mM NADH, 0.5 μg/mL GSNO Reductase, 1% DMSO, 25° C.; values given as 'about' bounds; read-out: IC50 (GSNOR inhibitor activity)
T1 construct: made in house; host or cells: E. coli (arabinose-induced)
T1 sequence (P11766 whole entry): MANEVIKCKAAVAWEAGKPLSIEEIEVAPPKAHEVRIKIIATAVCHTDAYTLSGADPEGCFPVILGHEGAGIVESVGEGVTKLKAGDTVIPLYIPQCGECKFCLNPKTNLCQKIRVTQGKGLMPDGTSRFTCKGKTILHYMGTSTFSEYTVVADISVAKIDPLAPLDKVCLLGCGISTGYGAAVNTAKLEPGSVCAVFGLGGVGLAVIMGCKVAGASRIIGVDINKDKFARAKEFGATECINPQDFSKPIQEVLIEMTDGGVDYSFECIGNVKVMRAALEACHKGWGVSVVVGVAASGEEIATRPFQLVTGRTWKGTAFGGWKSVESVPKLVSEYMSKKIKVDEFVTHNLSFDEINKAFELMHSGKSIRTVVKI
Experimental: Various compounds were tested in vitro for their ability to inhibit GSNOR activity. […] GSNOR expression and purification is described in Biochemistry 2000, 39, 10720-10729.
GSNOR fermentation: Pre-cultures were grown from stabs of a GSNOR glycerol stock in 2XYT media containing 100 ug/ml ampicillin after an overnight incubation at 37° C. Cells were then added to fresh 2XYT (4L) containing ampicillin and grown to an OD (A600) of 0.6-0.9 at 37° C. before induction. GSNOR expression was induced with 0.1% arabinose in an overnight incubation at 20° C.
GSNOR Purification: E. coli cell paste was lysed by nitrogen cavitation and the clarified lysate purified by Ni affinity chromatography on an AKTA FPLC (Amersham Pharmacia). The column was eluted in 20 mM Tris pH 8.0/250 mM NaCl with a 0-500 mM imidazole gradient. […] GSNOR was recovered in the flowthrough fraction and for crystallography is further purified by Q-Sepharose and Heparin flowthrough chromatography in 20 mM Tris pH 8.0, 1 mM DTT, 10 uM ZnSO4.
GSNOR assay: GSNO and Enzyme/NADH Solutions are made up fresh each day. The Solutions are filtered and allowed to warm to room temperature. GSNO Solution: 100 mM NaPO4 (pH 7.4), 0.480 mM GSNO. 396 μL of GSNO Solution is added to a cuvette followed by 8 μL of test compound in DMSO (or DMSO only for full reaction control) and mixed with the pipette tip. Compounds to be tested are made up at a stock concentration of 10 mM in 100% DMSO. 2 fold serial dilutions are done in 100% DMSO. 8 μL of each dilution are added to an assay so that the final concentration of DMSO in the assay is 1%. The concentrations of compounds tested range from 100 to 0.003 μM. Enzyme/NADH Solution: 100 mM NaPO4 (pH 7.4), 0.600 mM NADH, 1.0 μg/mL GSNO Reductase. 396 μL of the Enzyme/NADH Solution is added to the cuvette to start the reaction. The cuvette is placed in the Cary 3E UV/Visible Spectrophotometer and the change in 340 nm absorbance/min at 25° C. is recorded for 3 minutes. The assays are done in triplicate for each compound concentration. IC50's for each compound are calculated using the standard curve analysis in the Enzyme Kinetics Module of SigmaPlot.
Final assay conditions: 100 mM NaPO4, pH 7.4, 0.240 mM GSNO, 0.300 mM NADH, 0.5 μg/mL GSNO Reductase and 1% DMSO. Final volume: 800 μL/cuvette.

For `Cc1cc(C(N)=O)ccc1-c1c(-c2ccc(-n3ccnc3)cc2)ccn1CCC(=O)O` [Example 5, 3-(3-(4-(1H-imidazol-1-yl)phenyl)-2-(4-carbamoyl-2-methylphenyl)-1H-pyrrol-1-yl)propanoic acid], which IC50 is on record?
Its IC50 is less than 1000 nM.

For `COc1ccc(-c2ccn(-c3ccc(C(=O)O)c(F)c3)c2-c2ccc(C(N)=O)cc2C)cc1` [Example 16, 4-(2-(4-carbamoyl-2-methylphenyl)-3-(4-methoxyphenyl)-1H-pyrrol-1-yl)-2-fluorobenzoic acid], which IC50 is on record?
Its IC50 is less than 5000 nM.

`COc1ccc(-c2ccn(-c3cc(F)c(O)c(F)c3)c2-c2ccc(C(N)=O)cc2C)cc1` [Example 25, 4-(1-(3,5-difluoro-4-hydroxyphenyl)-3-(4-methoxyphenyl)-1H-pyrrol-2-yl)-3-methylbenzamide] was tested. Which IC50 did it give?
Its IC50 is less than 1000 nM.

How did the IC50 turn out when `COc1ccc(-c2ccn(-c3ccc(O)cn3)c2-c2ccc(C(N)=O)cc2C)cc1` [Example 26, 4-(1-(5-hydroxypyridin-2-yl)-3-(4-methoxyphenyl)-1H-pyrrol-2-yl)-3-methylbenzamide] was run?
The IC50 was less than 5000 nM.

Which IC50 does the source give for `Cc1cc(C(N)=O)ccc1-c1c(-c2ccc(-n3ccnc3C)cc2)ccn1-c1ccc(O)c(F)c1` [Example 29, 4-(1-(3-fluoro-4-hydroxyphenyl)-3-(4-(2-methyl-1H-imidazol-1-yl)phenyl)-1H-pyrrol-2-yl)-3-methylbenzamide] here?
Its IC50 is less than 1000 nM.

For `Cc1cc(C(N)=O)ccc1-c1c(-c2ccc(-n3ccnc3C)cc2)ccn1-c1cc(F)c(O)c(F)c1` [Example 30, 4-(1-(3,5-difluoro-4-hydroxyphenyl)-3-(4-(2-methyl-1H-imidazol-1-yl)phenyl)-1H-pyrrol-2-yl)-3-methylbenzamide], which IC50 is on record?
The IC50 was less than 1000 nM.

How did the IC50 turn out when `COc1ccc(-c2ccn(-c3ccc(C(=O)O)cc3)c2-c2ccc(C(N)=O)cc2C)cc1` [Example 19, 4-(2-(4-carbamoyl-2-methylphenyl)-3-(4-methoxyphenyl)-1H-pyrrol-1-yl)benzoic acid] was run?
The IC50 was less than 1000 nM.

`COc1ccc(-c2ccn(-c3ccc(O)c(F)c3)c2-c2ccc(C(N)=O)cc2C)cc1` [Example 23, 4-(1-(3-fluoro-4-hydroxyphenyl)-3-(4-methoxyphenyl)-1H-pyrrol-2-yl)-3-methylbenzamide] was tested. Which IC50 did it give?
Its IC50 is less than 1000 nM.

`COc1ccc(-c2ccn(CC(C)C(=O)O)c2-c2ccc(C(N)=O)cc2C)cc1` (stereo not drawn) [Example 3, 3-(2-(4-carbamoyl-2-methylphenyl)-3-(4-methoxyphenyl)-1H-pyrrol-1-yl)-2-methylpropanoic acid] was tested. Which IC50 did it give?
Its IC50 is less than 5000 nM.

For `COc1cc(Cl)ccc1-n1ccc(CCC(=O)O)c1-c1ccc(C(N)=O)cc1C` [Example 14, 3-(2-(4-carbamoyl-2-methylphenyl)-1-(4-chloro-2-methoxyphenyl)-1H-pyrrol-3-yl)propanoic acid], which IC50 is on record?
Its IC50 is less than 1000 nM.

Which IC50 does the source give for `COc1ccc(-c2ccn(CCC(=O)O)c2-c2ccc(C(N)=O)cc2C)cc1` [Example 1, 3-(2-(4-carbamoyl-2-methylphenyl)-3-(4-methoxyphenyl)-1H-pyrrol-1-yl)propanoic acid] here?
Its IC50 is less than 1000 nM.

How did the IC50 turn out when `COc1ccc(-c2ccn(-c3ccc(C(=O)O)c(Cl)c3)c2-c2ccc(C(N)=O)cc2C)cc1` [Example 20, 4-(2-(4-carbamoyl-2-methylphenyl)-3-(4-methoxyphenyl)-1H-pyrrol-1-yl)-2-chlorobenzoic acid] was run?
The IC50 was less than 5000 nM.

Which IC50 does the source give for `COc1ccc(-c2ccn(-c3ccc(O)c(C(=O)O)c3)c2-c2ccc(C(N)=O)cc2C)cc1` [Example 27, 5-(2-(4-carbamoyl-2-methylphenyl)-3-(4-methoxyphenyl)-1H-pyrrol-1-yl)-2-hydroxybenzoic acid] here?
The IC50 was less than 1000 nM.

Which IC50 does the source give for `Cc1cc(C(N)=O)ccc1-c1c(CCC(=O)O)ccn1-c1ccc(-n2ccnc2)cc1` [Example 13, 3-(1-(4-(1H-imidazol-1-yl)phenyl)-2-(4-carbamoyl-2-methylphenyl)-1H-pyrrol-3-yl)propanoic acid] here?
The IC50 was less than 1000 nM.

How did the IC50 turn out when `COc1ccc(-c2ccn(-c3ccc(C(=O)O)c(O)c3)c2-c2ccc(C(N)=O)cc2C)cc1` [Example 15, 4-(2-(4-carbamoyl-2-methylphenyl)-3-(4-methoxyphenyl)-1H-pyrrol-1-yl)-2-hydroxybenzoic acid] was run?
Its IC50 is less than 1000 nM.

How did the IC50 turn out when `COc1ccc(-c2ccn(CC(F)(F)C(=O)O)c2-c2ccc(C(N)=O)cc2C)cc1` [Example 9, 3-(2-(4-carbamoyl-2-methylphenyl)-3-(4-methoxyphenyl)-1H-pyrrol-1-yl)-2,2-difluoropropanoic acid] was run?
The IC50 was less than 5000 nM.

Which IC50 does the source give for `COc1ccc(-c2ccn(-c3ccc(O)c([N+](=O)[O-])c3)c2-c2ccc(C(N)=O)cc2C)cc1` [Example 17, 4-(1-(4-hydroxy-3-nitrophenyl)-3-(4-methoxyphenyl)-1H-pyrrol-2-yl)-3-methylbenzamide] here?
Its IC50 is less than 1000 nM.

With `COc1ccc(-n2ccc(CCC(=O)O)c2-c2ccc(C(N)=O)cc2C)cc1` [Example 6, 3-(2-(4-carbamoyl-2-methylphenyl)-1-(4-methoxyphenyl)-1H-pyrrol-3-yl)propanoic acid] as the compound, how does the IC50 read?
Its IC50 is less than 1000 nM.
